Data on one compound can be found in paper PMC5218480 (PLoS ONE, 2017).

The assay has as its system MV-4-11 cells. Put plainly: Gene expression microarray analysis (Affymetrix PrimeView) and GSEA. It counts as cell-based, human. Details: RFU PODN (11730768_x_at) / Fold change /veh PODN (11730768_x_at) / RFU LINC00158 (11744669_a_at) / Fold change /veh LINC00158 (11744669_a_at) / RFU DUSP10 (11751237_a_at) / Fold change /veh DUSP10 (11751237_a_at) / RFU ID3 (11757404_x_at) / Fold change /veh ID3 (11757404_x_at) / RFU PLEKHG5 (11737974_s_at) / Fold change /veh PLEKHG5 (11737974_s_at) / RFU LRRC4B (11730491_at) / Fold change /veh LRRC4B (11730491_at) / RFU GIMAP4 (11747438_a_at) / Fold change /veh GIMAP4 (11747438_a_at) / RFU KRT8 (11758183_x_at) / Fold change /veh KRT8 (11758183_x_at) / RFU CNN1 (11734310_a_at) / Fold change /veh CNN1 (11734310_a_at) / RFU VPS37D (11726825_at) / Fold change /veh VPS37D (11726825_at) / RFU C10orf10 (11716522_x_at) / Fold change /veh C10orf10 (11716522_x_at) / RFU KIR2DL2 /// KIR2DL4 /// KIR2DL5A /// KIR2DL5B /// KIR2DS1 /// KIR2DS2 /// KIR2DS3 /// KIR2DS4 /// KIR3DL3 /// KIR3DL3 /// KIR3DS1 (11738374_at) / Fold change /veh KIR2DL2 /// KIR2DL4 /// KIR2DL5A /// KIR2DL5B /// KIR2DS1 /// KIR2DS2 /// KIR2DS3 /// KIR2DS4 /// KIR3DL3 /// KIR3DL3 /// KIR3DS1 (11738374_at) / RFU C1QL1 (11718748_at) / Fold change /veh C1QL1 (11718748_at) / RFU TMPRSS4 (11747572_a_at) / Fold change /veh TMPRSS4 (11747572_a_at) / RFU HAMP (11756126_x_at) / Fold change /veh HAMP (11756126_x_at) / RFU RNFT2 (11725882_a_at) / Fold change /veh RNFT2 (11725882_a_at) / RFU NR4A2 (11747474_a_at) / Fold change /veh NR4A2 (11747474_a_at) / RFU ABCC12 (11746883_a_at) / Fold change /veh ABCC12 (11746883_a_at) / RFU TMEM136 (11760407_x_at) / Fold change /veh TMEM136 (11760407_x_at) / RFU CLDN22 /// WWC2 (11732394_at) / Fold change /veh CLDN22 /// WWC2 (11732394_at) / RFU HLA-DPB1 (11760878_x_at) / Fold change /veh HLA-DPB1 (11760878_x_at) / RFU SPINT1 (11716480_a_at) / Fold change /veh SPINT1 (11716480_a_at) / RFU GAP43 (11754022_s_at) / Fold change /veh GAP43 (11754022_s_at) / RFU A4GNT (11735810_at) / Fold change /veh A4GNT (11735810_at) / RFU PRB3 (11715151_x_at) / Fold change /veh PRB3 (11715151_x_at) / RFU TUBB4B (11761932_at) / Fold change /veh TUBB4B (11761932_at) / RFU CAPN14 (11732068_a_at) / Fold change /veh CAPN14 (11732068_a_at) / RFU TMCC2 (11721928_a_at) / Fold change /veh TMCC2 (11721928_a_at) / RFU IRGQ (11745062_a_at) / Fold change /veh IRGQ (11745062_a_at) / RFU FAM174B (11720279_a_at) / Fold change /veh FAM174B (11720279_a_at) / RFU TMPRSS4 (11748680_a_at) / Fold change /veh TMPRSS4 (11748680_a_at) / RFU FAM212B (11763350_a_at) / Fold change /veh FAM212B (11763350_a_at) / RFU PLEKHG5 (11743358_a_at) / Fold change /veh PLEKHG5 (11743358_a_at) / RFU ZSCAN30 (11745921_a_at) / Fold change /veh ZSCAN30 (11745921_a_at) / RFU CMKLR1 (11741424_a_at) / Fold change /veh CMKLR1 (11741424_a_at) / RFU LOC101060620 /// MAPK8IP1 (11723275_at) / Fold change /veh LOC101060620 /// MAPK8IP1 (11723275_at) / RFU SPTSSB (11747773_x_at) / Fold change /veh SPTSSB (11747773_x_at) / RFU PRSS12 (11739890_at) / Fold change /veh PRSS12 (11739890_at) / RFU BIN1 (11741810_x_at) / Fold change /veh BIN1 (11741810_x_at) / RFU WNT11 (11732464_a_at) / Fold change /veh WNT11 (11732464_a_at) / RFU C10orf10 (11716521_a_at) / Fold change /veh C10orf10 (11716521_a_at) / RFU C5orf56 (11738089_at) / Fold change /veh C5orf56 (11738089_at) / RFU CYB561 (11721691_x_at) / Fold change /veh CYB561 (11721691_x_at) / RFU ANKRD19P (11752326_a_at) / Fold change /veh ANKRD19P (11752326_a_at) / RFU OR2T12 /// OR2T33 /// OR2T8 (11738714_s_at) / Fold change /veh OR2T12 /// OR2T33 /// OR2T8 (11738714_s_at) / RFU VCAN (11748164_a_at) / Fold change /veh VCAN (11748164_a_at) / RFU JSRP1 (11732532_at) / Fold change /veh JSRP1 (11732532_at) / RFU KRTAP10-11 (11738290_x_at) / Fold change /veh KRTAP10-11 (11738290_x_at) / RFU MYO3A (11730013_a_at) / Fold change /veh MYO3A (11730013_a_at) / RFU EBF3 (11725865_a_at) / Fold change /veh EBF3 (11725865_a_at) / RFU CAMK2N1 (11719241_x_at) / Fold change /veh CAMK2N1 (11719241_x_at) / RFU C5orf56 (11738088_a_at) / Fold change /veh C5orf56 (11738088_a_at) / RFU OLFML3 (11715873_a_at) / Fold change /veh OLFML3 (11715873_a_at) / RFU LOC100653217 /// NTM (11731650_a_at) / Fold change /veh LOC100653217 /// NTM (11731650_a_at) / RFU MAPK11 (11762145_a_at) / Fold change /veh MAPK11 (11762145_a_at) / RFU FIZ1 (11724087_x_at) / Fold change /veh FIZ1 (11724087_x_at) / RFU OASL (11726364_x_at) / Fold change /veh OASL (11726364_x_at) / RFU SOX15 (11748057_x_at) / Fold change /veh SOX15 (11748057_x_at) / RFU CD79A (11719716_a_at) / Fold change /veh CD79A (11719716_a_at) / RFU HIST1H1D (11736915_at) / Fold change /veh HIST1H1D (11736915_at) / RFU CASKIN2 (11723855_a_at) / Fold change /veh CASKIN2 (11723855_a_at) / RFU LOC730098 (11760151_x_at) / Fold change /veh LOC730098 (11760151_x_at) / RFU OR4N2 (11742367_at) / Fold change /veh OR4N2 (11742367_at) / RFU PRRT2 (11749266_a_at) / Fold change /veh PRRT2 (11749266_a_at) / RFU SNX32 (11753110_a_at) / Fold change /veh SNX32 (11753110_a_at) / RFU CDHR5 (11726645_a_at) / Fold change /veh CDHR5 (11726645_a_at) / RFU RCAN1 (11760418_a_at) / Fold change /veh RCAN1 (11760418_a_at) / RFU FAM167A (11723789_a_at) / Fold change /veh FAM167A (11723789_a_at) / RFU FAM26E (11764081_at) / Fold change /veh FAM26E (11764081_at) / RFU ISYNA1 (11749810_s_at) / Fold change /veh ISYNA1 (11749810_s_at) / RFU ACY1 (11761880_at) / Fold change /veh ACY1 (11761880_at) / RFU 11764098_at / Fold change /veh 11764098_at / RFU SAMD14 (11745864_x_at) / Fold change /veh SAMD14 (11745864_x_at) / RFU NPB (11741838_a_at) / Fold change /veh NPB (11741838_a_at) / RFU TMPRSS6 (11731388_a_at) / Fold change /veh TMPRSS6 (11731388_a_at) / RFU KRTAP10-2 (11738614_at) / Fold change /veh KRTAP10-2 (11738614_at) / RFU ARHGAP8 /// PRR5-ARHGAP8 (11727945_x_at) / Fold change /veh ARHGAP8 /// PRR5-ARHGAP8 (11727945_x_at) / RFU KRTAP5-7 /// NADSYN1 (11734609_at) / Fold change /veh KRTAP5-7 /// NADSYN1 (11734609_at) / RFU RASL12 (11751679_a_at) / Fold change /veh RASL12 (11751679_a_at) / RFU CDKN2B (11736163_a_at) / Fold change /veh CDKN2B (11736163_a_at) / RFU PRF1 (11729649_at) / Fold change /veh PRF1 (11729649_at) / RFU, ZNF638 /// ZNF638-IT1 / Fold change vs veh, ZNF638 /// ZNF638-IT1 / RFU, PANK3 / Fold change vs veh, PANK3 / RFU, SH3YL1 / Fold change vs veh, SH3YL1 / RFU, ZEB2 / Fold change vs veh, ZEB2 / RFU, NRIP1 / Fold change vs veh, NRIP1 / RFU, PTTG1IP / Fold change vs veh, PTTG1IP / RFU, CAPN2 / Fold change vs veh, CAPN2 / RFU, MED14 / Fold change vs veh, MED14 / RFU, SNORA58 / Fold change vs veh, SNORA58 / RFU, C1orf63 / Fold change vs veh, C1orf63 / RFU, LRRFIP1 / Fold change vs veh, LRRFIP1 / RFU, NDUFAF7 / Fold change vs veh, NDUFAF7 / RFU, SLC12A2 / Fold change vs veh, SLC12A2 / RFU, IBTK / Fold change vs veh, IBTK / RFU, ESF1 / Fold change vs veh, ESF1 / Fold change vs veh, TMEM50B / RFU, TAOK1 / Fold change vs veh, TAOK1 / RFU, ACBD3 / Fold change vs veh, ACBD3 / RFU, TMA16 / Fold change vs veh, TMA16 / RFU, RWDD3 / Fold change vs veh, RWDD3 / RFU, BCAT1 / Fold change vs veh, BCAT1 / RFU, EDEM3 / Fold change vs veh, EDEM3 / RFU, TMEM33 / Fold change vs veh, TMEM33 / RFU, WDR75 / Fold change vs veh, WDR75 / RFU, AHCTF1 / Fold change vs veh, AHCTF1 / RFU, TFRC / Fold change vs veh, TFRC / RFU, ZDHHC17 / Fold change vs veh, ZDHHC17 / RFU, NOM1 / Fold change vs veh, NOM1 / RFU, ARL8B / Fold change vs veh, ARL8B / RFU, ZBTB11 / Fold change vs veh, ZBTB11 / RFU, TAMM41 / Fold change vs veh, TAMM41 / RFU, KIAA1704 /// LOC100996395 / Fold change vs veh, KIAA1704 /// LOC100996395 / RFU, ING1 / Fold change vs veh, ING1 / RFU, TRMT61B / Fold change vs veh, TRMT61B / RFU, FUBP3 / Fold change vs veh, FUBP3 / RFU, TP53 / Fold change vs veh, TP53 / RFU, TNKS2 / Fold change vs veh, TNKS2 / RFU, ZFP14 / Fold change vs veh, ZFP14 / RFU, ACTR2 / Fold change vs veh, ACTR2 / RFU, PPP3R1 / Fold change vs veh, PPP3R1 / RFU, PIK3R1 / Fold change vs veh, PIK3R1 / RFU, HNRNPA1 / Fold change vs veh, HNRNPA1 / RFU, RNF170 / Fold change vs veh, RNF170 / RFU, ZNF28 / Fold change vs veh, ZNF28 / RFU, RNGTT / Fold change vs veh, RNGTT / RFU, OGT / Fold change vs veh, OGT / RFU, BRD1 / Fold change vs veh, BRD1 / RFU, MARS / Fold change vs veh, MARS / RFU, ZNF655 / Fold change vs veh, ZNF655 / RFU, FAHD1 / Fold change vs veh, FAHD1 / RFU, BDP1 / Fold change vs veh, BDP1 / RFU, LRRCC1 / Fold change vs veh, LRRCC1 / RFU, ARID1A / Fold change vs veh, ARID1A / RFU, ZNF146 / Fold change vs veh, ZNF146 / RFU, ZNF330 / Fold change vs veh, ZNF330 / RFU, GPN3 / Fold change vs veh, GPN3 / RFU, C9orf123 / Fold change vs veh, C9orf123 / RFU, N4BP2L2 / Fold change vs veh, N4BP2L2 / RFU, ARFIP1 / Fold change vs veh, ARFIP1 / RFU, FAM179B / Fold change vs veh, FAM179B / RFU, BCL10 / Fold change vs veh, BCL10 / RFU, UHRF1BP1L / Fold change vs veh, UHRF1BP1L / RFU, BET1 / Fold change vs veh, BET1 / RFU, CNOT2 / Fold change vs veh, CNOT2 / RFU, ZNF268 / Fold change vs veh, ZNF268 / Fold change vs veh, ZNF507 / RFU, DGCR2 / Fold change vs veh, DGCR2 / RFU, WDSUB1 / Fold change vs veh, WDSUB1 / Fold change vs veh, HSP90B1 /// MIR3652 / RFU, ADSS / Fold change vs veh, ADSS / RFU, GK / Fold change vs veh, GK / RFU, ZNF148 / Fold change vs veh, ZNF148 / RFU, TAF9 / Fold change vs veh, TAF9 / RFU, SLC1A5 / Fold change vs veh, SLC1A5 / RFU, SLMO2 / Fold change vs veh, SLMO2 / RFU, ABCC4 / Fold change vs veh, ABCC4 / RFU, LOC101060439 /// RAP1B / Fold change vs veh, LOC101060439 /// RAP1B / RFU, RFX7 / Fold change vs veh, RFX7 / RFU, GTPBP10 / Fold change vs veh, GTPBP10 / RFU, CNEP1R1 / Fold change vs veh, CNEP1R1 / RFU, BIVM-ERCC5 /// ERCC5 / Fold change vs veh, BIVM-ERCC5 /// ERCC5 / RFU, ILF3 / Fold change vs veh, ILF3 / RFU 11762660_at / Fold change /veh 11762660_at / RFU VCAN (11757783_s_at) / Fold change /veh VCAN (11757783_s_at) / RFU DDX43 (11728927_at) / Fold change /veh DDX43 (11728927_at) / RFU KRT8 (11758188_x_at) / Fold change /veh KRT8 (11758188_x_at) / RFU NKD1 (11759106_at) / Fold change /veh NKD1 (11759106_at) / RFU SRD5A1 (11742802_a_at) / Fold change /veh SRD5A1 (11742802_a_at) / RFU TPSAB1 /// TPSB2 (11721975_s_at) / Fold change /veh TPSAB1 /// TPSB2 (11721975_s_at) / RFU GSTM3 (11746129_a_at) / Fold change /veh GSTM3 (11746129_a_at) / RFU IL23R (11737362_x_at) / Fold change /veh IL23R (11737362_x_at) / RFU TMEM51 (11727254_a_at) / Fold change /veh TMEM51 (11727254_a_at) / RFU PIWIL2 (11732686_x_at) / Fold change /veh PIWIL2 (11732686_x_at) / RFU ORM1 (11744905_x_at) / Fold change /veh ORM1 (11744905_x_at) / RFU CCDC152 (11743942_at) / Fold change /veh CCDC152 (11743942_at) / RFU ECM1 (11717891_a_at) / Fold change /veh ECM1 (11717891_a_at) / RFU IL23R (11748794_a_at) / Fold change /veh IL23R (11748794_a_at) / RFU TNFAIP8L3 (11732012_x_at) / Fold change /veh TNFAIP8L3 (11732012_x_at) / RFU MBOAT4 (11741988_at) / Fold change /veh MBOAT4 (11741988_at) / RFU 11764193_at / Fold change /veh 11764193_at / RFU TMEM53 (11763286_at) / Fold change /veh TMEM53 (11763286_at) / RFU MAGEB2 (11727129_at) / Fold change /veh MAGEB2 (11727129_at) / RFU TMEM200A (11744735_a_at) / Fold change /veh TMEM200A (11744735_a_at) / RFU CCDC152 (11751479_a_at) / Fold change /veh CCDC152 (11751479_a_at) / RFU FAM211A (11726209_a_at) / Fold change /veh FAM211A (11726209_a_at) / RFU RGS16 (11746705_a_at) / Fold change /veh RGS16 (11746705_a_at) / RFU VCAN (11755009_s_at) / Fold change /veh VCAN (11755009_s_at) / RFU RHOB (11743442_s_at) / Fold change /veh RHOB (11743442_s_at) / RFU RGS16 (11720943_a_at) / Fold change /veh RGS16 (11720943_a_at) / RFU RGS16 (11720944_at) / Fold change /veh RGS16 (11720944_at) / RFU, VPS4B / Fold change vs veh, VPS4B / RFU, CREB1 / Fold change vs veh, CREB1 / RFU, DNAJC13 / Fold change vs veh, DNAJC13 / RFU, GNAQ / Fold change vs veh, GNAQ / RFU, CDK5R1 / Fold change vs veh, CDK5R1 / RFU, ZRANB3 / Fold change vs veh, ZRANB3 / RFU, CUL4A / Fold change vs veh, CUL4A / RFU, CCNY / Fold change vs veh, CCNY / RFU, UFL1 / Fold change vs veh, UFL1 / RFU, COG3 / Fold change vs veh, COG3 / RFU, DIAPH2 / Fold change vs veh, DIAPH2 / RFU, SKA2 / Fold change vs veh, SKA2 / RFU, AFF3 / Fold change vs veh, AFF3 / RFU, LMF1 / Fold change vs veh, LMF1 / RFU, IPO11 / Fold change vs veh, IPO11 / RFU, DFFB / Fold change vs veh, DFFB / RFU, FOXP1 / Fold change vs veh, FOXP1 / RFU, CARD8 / Fold change vs veh, CARD8 / RFU, STRN3 / Fold change vs veh, STRN3 / RFU, ADK / Fold change vs veh, ADK / RFU, RASSF2 / Fold change vs veh, RASSF2 / RFU, WIPF1 / Fold change vs veh, WIPF1 / RFU, LARP1B / Fold change vs veh, LARP1B / RFU, RASA1 / Fold change vs veh, RASA1 / RFU, RB1 / Fold change vs veh, RB1 / RFU, PPFIA1 / Fold change vs veh, PPFIA1 / RFU, MAT2A / Fold change vs veh, MAT2A / RFU, CCT5 / Fold change vs veh, CCT5 / RFU, WDR92 / Fold change vs veh, WDR92 / RFU, CUX1 / Fold change vs veh, CUX1 / RFU, TTC7A / Fold change vs veh, TTC7A / RFU, TMEM135 / Fold change vs veh, TMEM135 / RFU, DEPTOR / Fold change vs veh, DEPTOR / RFU, CPM / Fold change vs veh, CPM / RFU, DNAJB6 / Fold change vs veh, DNAJB6 / RFU, CACNA2D3 / Fold change vs veh, CACNA2D3 / RFU, DTX4 / Fold change vs veh, DTX4 / RFU, TFCP2 / Fold change vs veh, TFCP2 / RFU, GMCL1 /// GMCL1P1 / Fold change vs veh, GMCL1 /// GMCL1P1 / RFU, AEBP2 / Fold change vs veh, AEBP2 / RFU, SNHG1 /// SNORD22 /// SNORD25 /// SNORD26 /// SNORD27 /// SNORD28 /// SNORD29 /// SNORD31 / Fold change vs veh, SNHG1 /// SNORD22 /// SNORD25 /// SNORD26 /// SNORD27 /// SNORD28 /// SNORD29 /// SNORD31 / Fold change (Aza/veh), C12orf56 (ProbeSet 11735607_a_at) / Fold change (ACY-1035/veh), C12orf56 (ProbeSet 11735607_a_at) / Fold change (Aza/veh), FGFR1OP (ProbeSet 11751329_s_at) / Fold change (ACY-1035/veh), FGFR1OP (ProbeSet 11751329_s_at) / Fold change (Aza/veh), VPS36 (ProbeSet 11739960_a_at) / Fold change (ACY-1035/veh), VPS36 (ProbeSet 11739960_a_at) / RFU SYPL1 (11715823_x_at) / Fold change /veh SYPL1 (11715823_x_at) / RFU IGFBP7 (11715501_s_at) / Fold change /veh IGFBP7 (11715501_s_at) / RFU REEP3 (11722064_at) / Fold change /veh REEP3 (11722064_at) / RFU IGLL1 (11728026_x_at) / Fold change /veh IGLL1 (11728026_x_at): dose or concentration left out as unconfirmed. As to conditions: ProbeSet 11722463_a_at; LIST B.

Regarding `Nc1ncn([C@@H]2O[C@H](CO)[C@@H](O)[C@H]2O)c(=O)n1` [azacitidine], the “RFU, TNKS2” value turned out to be 47.93 RFU.
